Experimental data: patent US20230285258A1, “A SUNSCREEN FORMULATION” (priority 2019, published 2023)

Tests used:
[1] = formulation containing 10%, 2 mg/cm^2 daily for a week, cited from earlier work
[2] = US general population 2003-2004; cited from earlier work
[3] = Californian females 2007-2009; cited from earlier work
[4] = Urine samples collected in 2007-2009 from Californian females; assay type: in vivo, human; conditions: from 22.9 ng/mL to 200 ng/mL
Description: Since the first day of sunscreen usage in 1930s, the exposure to sunscreen agents has begun. Initially the scope and frequency of the sunscreen usage among the human population was very limited. Therefore, the levels of UV filters found in human samples were usually low. However, for the last 20 years, the situation changed dramatically. In one epidemiological study conducted in 2003-2004, 2517 urine samples from United States (US) general population were analyzed for the presence of oxybenzone (benzophenone-3, bp-3), as part of the 2003-2004 National Health and Nutrition Examination Survey [A.M. Calafat, L.Y.Wong, X.YE, J.A.Reidy, L.L.Needham, Concentrations of the sunscreen agent benzophenone-3 in residents of the United States: National Health and nutrition Examination Survey 2003-2004, Environ. Health Perspect, 116(2008)893-897]. Oxybenzone was detected in 97% of the all samples with mean concentration of 22.9 ng/ml and 95th percentile concentration of 1040 ng/ml. As the data indicated the sunscreen agent occurrences is widespread. […] 543(2016)28-36]. […]

[5] = Mice skin penetration test (ointment on shaved back, plasma HPLC)
Description: Mice preparation and blood sample taking: A group of mice ranging from 16 to 60 were fed with adequate food and water for 3 days. Twelve hours before the test the food was removed, and only water was given. Usually 12 mice were randomly selected with 2 mice assigned for each time points of 5, 15, 30, 60, 90, 120 minutes. Sometimes 3 mice may be selected for certain sample time points. Two hours before the test the mice were subjected to anesthesia and the hair on the back (2.5--3.0 cm^2) was removed. After recovering from anesthesia mice will be applied with testing ointment sample. The exact same testing procedures will be carried out with the control standard sample. At 5, 15, 30, 60, 90, 120 min. Blood sample (1 mL) will be collected after removing the eyes.
Blood sample pretreatment: after the blood sample was taken, it was immediately subjected to centrifugation 10 min. at 12000 rpm, supernatant plasma layer was taken, preserved at -20° C. for later use.
Blood sample preparation: Accurately transfer 150 µL plasma sample to a 1.5 mL EP test tube. Add methanol and acetonitrile 200 µL, respectively. Vertex mix for 1 min., then centrifuge for 10 min. at 12000 rpm. Precisely transfer the supernatant solution to another test tube. At 40° C. blow N2 through to dryness. To the solids left add methanol 150 µL, vertex mix for 1 min. centrifuge at 12000 rpm for 10 min. Supernatant solution was used directly for HPLC analysis.
(4-Aminomethoxy-2-hydroxy-phenyl)-phenyl-methanone-PAA-OMe-OPr(40): Column: C18 RP column (250 × 4.6 mm, 5 µm); column temperature: 25° C.; mobile phase: MeOH:0.05% Formic Acid = 70:30; Flow rate: 1.0 mL/min.; Wavelength: 310 nm; Injection volume: 20 L;
1-[4-(3-Amino-propoxy)-2-hydroxy-phenyl1-3-(4-tert-butyl-phenyl)-propane)-1,3-dione-PAA-OMe-OPr(40): Column: C18 RP column (250 × 4.6 mm, 5 m); column temperature: 25° C.; mobile phase: MeOH:0.05% Formic Acid = 80:20; Flow rate: 1.0 mL/min.; Wavelength: 360 nm; Injection volume: 20 µL; […]

increase of average concentration in urine sample compared to the 2003-2004 study [4] | Compound | mean urine concentration, females ([1]; adults) [ng/mL] | maximum plasma concentration, females [1] [ng/mL] | maximum plasma concentration, males [1] [ng/mL] | mean urine concentration, males ([1]; adults) [ng/mL] | 95th percentile concentration in urine [2] [ng/mL] | mean concentration in urine [2] [ng/mL] | average level in urine samples [3] | highest level in urine samples [3] | hydrolysis in the plasma ([5]; inferred from mice blood samples after topical application) | sunscreen agent detected in plasma/blood samples by HPLC ([5]; mice, samples at 5, 15, 30, 60, 90, 120 min after topical application) | skin penetration of the sunscreen agent ([5]; topical test formulation on mice back, plasma at 5-120 min, compared with control formulation)
 | Cc1ccc(C=C2C(=O)C3(C)CCC2C3(C)C)cc1 (stereo not drawn) [4-methylbenzylidene camphor] | 5 | 20 | 20 |  |  |  |  |  |  |  | 
 | CCCCC(CC)COC(=O)C=Cc1ccc(OC)cc1 (stereo not drawn) [octyl methoxycinnamate] | 5 | 10 | 2 | 8 |  |  |  |  |  |  | 
more than 9 folds | COc1ccc(C(=O)c2ccccc2)c(O)c1 [oxybenzone] | 60 | 200 | 300 |  | 1040 | 22.9 | around 200 ng/ml | up to 13000 ng/ml |  |  | 
 | Octandioic Oxybenzone Ester |  |  |  |  |  |  |  |  | rapid hydrolysis | no octandioic oxybenzone esters was detected | skin penetration of octandioic oxybenzone ester
